Assay results from ChEMBL document CHEMBL1142187, “In vitro and in vivo activities of Chios mastic gum extracts and constituents against Helicobacter pylori” (2007).
Values after ≈ are worked out from the molar mass of the structure shown.

What follows are compounds tested on Helicobacter pylori (assay: Antibacterial activity against Helicobacter pylori after 48 hrs).
Type: functional

Q: With `C/C(=C/CC[C@H](C)C1CC[C@]2(C)C3=CCC4C(C)(C)[C@@H](O)CC[C@]4(C)C3CC[C@@]12C)C(=O)O` (stereo partly specified) as the compound, how does the MBC read?
A: 220 µg/mL (≈ 482 µM)

Q: With `C/C(=C/CC[C@H](C)C1CC[C@]2(C)C3=C(CC[C@@]12C)[C@@]1(C)CC[C@H](O)C(C)(C)C1CC3)C(=O)O` (stereo partly specified) as the compound, how does the MBC read?
A: 202 µg/mL (≈ 442 µM)

Q: How did the MBC turn out when `C/C(=C/CC[C@H](C)C1CC[C@]2(C)C3=C(CC[C@@]12C)[C@@]1(C)CCC(=O)C(C)(C)C1CC3)C(=O)O` (stereo partly specified) was run?
A: 333 µg/mL (≈ 732 µM)

Q: With `C/C(=C/CC[C@H](C)C1CC[C@]2(C)C3=CCC4C(C)(C)C(=O)CC[C@]4(C)C3CC[C@@]12C)C(=O)O` (stereo partly specified) as the compound, how does the MBC read?
A: 350 µg/mL (≈ 770 µM)

Q: For `CC1(C)C=C2[C@H]3CC[C@@H]4[C@@]5(C)CCC(=O)C(C)(C)[C@@H]5CC[C@@]4(C)[C@]3(C)CC[C@@]2(C(=O)O)CC1` [MORONIC ACID], which MBC is on record?
A: 310 µg/mL (≈ 682 µM)

Q: For `CC1(C)CC[C@]2(C(=O)O)CC[C@]3(C)C(=CC[C@@H]4[C@@]5(C)CCC(=O)C(C)(C)[C@@H]5CC[C@]43C)[C@@H]2C1` [OLEANONIC ACID], which MBC is on record?
A: 292 µg/mL (≈ 642 µM)
